Assays:
Test in all cases: competitive gel-based ABPP
Type in all cases: cell-based
MAGL = target: T1, MAGL (Rattus norvegicus, UniProt Q8R431)
T1 sequence (Q8R431 1-303): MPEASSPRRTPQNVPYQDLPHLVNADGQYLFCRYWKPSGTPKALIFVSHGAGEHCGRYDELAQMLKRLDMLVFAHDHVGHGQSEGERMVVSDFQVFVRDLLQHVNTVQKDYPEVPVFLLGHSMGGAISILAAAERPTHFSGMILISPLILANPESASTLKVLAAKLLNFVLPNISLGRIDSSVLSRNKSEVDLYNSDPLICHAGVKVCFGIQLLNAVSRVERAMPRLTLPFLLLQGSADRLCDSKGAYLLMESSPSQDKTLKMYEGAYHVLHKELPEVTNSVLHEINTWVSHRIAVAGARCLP

ABHD6 = target: T2, ABHD6 (Rattus norvegicus, UniProt Q5XI64)
T2 sequence (Q5XI64 1-337): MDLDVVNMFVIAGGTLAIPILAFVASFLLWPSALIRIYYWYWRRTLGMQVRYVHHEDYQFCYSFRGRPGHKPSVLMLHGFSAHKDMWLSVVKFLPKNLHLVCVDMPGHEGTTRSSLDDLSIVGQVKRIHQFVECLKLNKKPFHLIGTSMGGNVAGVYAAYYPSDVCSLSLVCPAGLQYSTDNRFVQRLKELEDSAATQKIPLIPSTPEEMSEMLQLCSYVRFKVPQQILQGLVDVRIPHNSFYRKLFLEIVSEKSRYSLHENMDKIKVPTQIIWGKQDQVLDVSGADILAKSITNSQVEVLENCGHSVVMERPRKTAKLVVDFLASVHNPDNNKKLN

FAAH = target: T3, FAAH (Rattus norvegicus, UniProt P97612)
T3 sequence (P97612 1-579): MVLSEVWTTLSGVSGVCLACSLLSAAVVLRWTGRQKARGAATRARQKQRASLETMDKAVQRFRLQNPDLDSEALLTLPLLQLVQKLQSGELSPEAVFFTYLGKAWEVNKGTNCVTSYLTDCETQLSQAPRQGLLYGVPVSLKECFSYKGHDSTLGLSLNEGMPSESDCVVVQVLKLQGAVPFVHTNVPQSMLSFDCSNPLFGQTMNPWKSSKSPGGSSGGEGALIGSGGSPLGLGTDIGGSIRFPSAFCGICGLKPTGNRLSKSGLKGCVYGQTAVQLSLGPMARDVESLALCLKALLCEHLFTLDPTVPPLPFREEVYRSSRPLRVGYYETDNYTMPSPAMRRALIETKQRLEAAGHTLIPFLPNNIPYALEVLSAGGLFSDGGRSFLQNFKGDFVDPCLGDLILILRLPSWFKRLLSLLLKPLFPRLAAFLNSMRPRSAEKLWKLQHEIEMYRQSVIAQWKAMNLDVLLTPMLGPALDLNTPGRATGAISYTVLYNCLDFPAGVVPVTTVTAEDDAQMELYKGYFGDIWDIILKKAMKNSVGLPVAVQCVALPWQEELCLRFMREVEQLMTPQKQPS

% inhibition at 100 nM (MAGL): 79
% inhibition at 100 nM (ABHD6): 30
% inhibition at 100 nM (FAAH): 79
SMILES: O=C(N1CCN(C(c2ccccc2)c2ccccc2)CC1)n1cncn1 [AKU-005]

From article PMC12016430 (The Journal of Headache and Pain, 2025)
